Assay results published in US11959145B2, “Method for identifying interventions that control the translational activity of ribosomal proteins in differential mRNA expression” (priority 2009, dated 2024).
Entries after “also recorded” stand apart in the source; their conditions may differ.

Test system: CYH2-PTC-FF reporter
Assay: dual luciferase (Firefly/Renilla) CYH2-PTC reporter assay
Type: cell-based, yeast
Text: FIG. 1: Schematic representation of comparative dual luciferase PTC assay as employed here. Firefly (FF) and Renilla (R) in wild type (WT) yeast cells are compared with luminescence counts of a PTC-FF reporter (e.g. the CYH2-PTC-FF reporter) in wild type yeast cells, wherein a PTC reduces the FF protein and thus luminescence.
FIG. 3: Gene dosage of ribosomal proteins modulates level of protein expression from PTC mRNAs. […] In FIG. 3B, a modulation of the expression of the FF/FF(PTC) reporter in selected ribosomal protein deletion strains is shown. In FIG. 3C, a modulation of expression of the LAMB3-FF/LAMB3(PTC)-FF reporter in selected ribosomal protein deletion strains is shown.
The yeast CYH2 was amplified from the genomic yeast DNA with the primers LG 751 and LG 752. The ATG of the CYH2 was left out to be in frame with the promoter and the firefly luciferase reporter. The 1.0 kb PCR product and pLBK 162 were digested with KpnI and SacI. The CYH2-PTC reporter was ligated in pLBK 162, thus generating pLBK 165 (FIG. 5f). […]
The reporter plasmids are to be transformed in the WT and ribosomal protein deletion strains. […] For testing the different levels of read-through a PTC containing reporter plasmid (e.g. pLBK 165) and for internal standard pLBK 164 are used. […]

**Q.** Which results are given for gentamycin?
**A.** expression level of the CYH2-PTC-FF reporter (RPL10/ΔRPL10 gene dosage reduced yeast strain, gentamycin added): not strong or not present at all; also recorded: does not contribute to alteration; CYH2-PTC-FF level (Firefly signal) (WT yeast strain (BY4743), gentamycin added as control): the signal increases; also recorded: induce an increase
